The values that follow come from ChEMBL document CHEMBL4680185, “Discovery of novel cyclin-dependent kinase (CDK) and histone deacetylase (HDAC) dual inhibitors with potent in vitro and in vivo anticancer activity” (Eur J Med Chem, 2020).

The test system of data set [1] is NCI-H460. The experiment in a line: cells. The format is functional. Conditions: Homo sapiens, time 72 hrs, read-out: GI.
Data set [2] relates to HeLa. The experiment in a line: cells. The format is functional, cell-based. Conditions: Homo sapiens, 72 h.
Description: Antiproliferative activity against human Hela cells assessed as inhibition of cell growth incubated for 72 hrs by CCK-8 assay
Data set [3] concerns HCT-116. Put plainly: cells. The format is functional. The note with it: Homo sapiens, time 72 hrs, read-out: GI.
Data set [4] has as its target T1, Protein deacetylase HDAC6 (Homo sapiens, UniProt Q9UBN7).
T1 sequence (Q9UBN7 whole entry): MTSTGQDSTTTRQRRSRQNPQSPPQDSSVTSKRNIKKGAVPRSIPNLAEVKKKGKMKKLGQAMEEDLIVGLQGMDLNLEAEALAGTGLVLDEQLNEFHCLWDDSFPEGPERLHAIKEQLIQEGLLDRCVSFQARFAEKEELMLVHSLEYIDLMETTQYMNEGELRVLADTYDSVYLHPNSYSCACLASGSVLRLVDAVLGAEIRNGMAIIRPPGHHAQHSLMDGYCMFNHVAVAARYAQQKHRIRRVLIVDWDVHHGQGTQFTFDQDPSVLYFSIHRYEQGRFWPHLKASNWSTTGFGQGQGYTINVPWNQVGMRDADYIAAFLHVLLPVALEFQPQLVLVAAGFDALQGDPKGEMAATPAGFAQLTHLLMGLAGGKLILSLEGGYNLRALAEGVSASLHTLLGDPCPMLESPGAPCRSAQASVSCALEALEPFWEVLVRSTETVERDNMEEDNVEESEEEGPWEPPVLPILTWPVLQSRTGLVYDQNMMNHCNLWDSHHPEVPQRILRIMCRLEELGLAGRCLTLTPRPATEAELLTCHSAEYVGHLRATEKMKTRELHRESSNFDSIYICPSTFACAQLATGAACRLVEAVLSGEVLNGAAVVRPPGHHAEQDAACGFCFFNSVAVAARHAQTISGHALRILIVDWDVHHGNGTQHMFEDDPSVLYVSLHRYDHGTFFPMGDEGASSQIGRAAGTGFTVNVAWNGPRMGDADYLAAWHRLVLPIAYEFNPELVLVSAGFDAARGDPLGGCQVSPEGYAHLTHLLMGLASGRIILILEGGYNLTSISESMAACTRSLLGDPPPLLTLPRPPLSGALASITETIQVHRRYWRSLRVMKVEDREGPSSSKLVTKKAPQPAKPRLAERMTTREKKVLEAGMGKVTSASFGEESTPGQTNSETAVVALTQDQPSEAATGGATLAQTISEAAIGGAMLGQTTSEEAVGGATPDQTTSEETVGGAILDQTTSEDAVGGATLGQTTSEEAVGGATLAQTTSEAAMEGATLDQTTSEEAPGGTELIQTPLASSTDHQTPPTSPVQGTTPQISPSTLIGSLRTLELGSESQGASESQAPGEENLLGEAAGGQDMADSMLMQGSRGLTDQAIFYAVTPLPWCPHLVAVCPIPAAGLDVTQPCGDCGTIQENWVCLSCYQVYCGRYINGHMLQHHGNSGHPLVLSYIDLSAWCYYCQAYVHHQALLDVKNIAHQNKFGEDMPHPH
The experiment in a line: Inhibition of human recombinant HDAC6 preincubated for 10 mins followed by addition of substrate fluor De Lys SIRT1 deacetylase measured after 30 mins by fluorescent plate reader analysis.

Data set [5] concerns HCT-116. The experiment in a line: cells. Conditions: Homo sapiens, time 72 hrs, read-out: GI. The format is functional. This is another data set of the same source.
In data set [6] the target is Cyclin-dependent kinase 2 (Homo sapiens) (UniProt P24941). Put plainly: Inhibition of CDK2 in human A375 cells at 1 uM measured after 12 hr by DAPI staining based immunofluorescence analysis. The format is cell-based. Conditions: A-375.
Data set [7] concerns the target CDK6/cyclin D3 (Homo sapiens, UniProt Q00534). Put plainly: Inhibition of recombinant human full length CDK6/cyclin D3 incubated for 10 mins by ADP-Glo reagent assay. The format is protein-complex assay. (ADP-Glo first removes unused ATP, then detects ADP through luciferase.)
In data set [8] the test system is HCT-116. The experiment in a line: Antitumor activity against human HCT116 cells xenografted in BALB/C nude mouse assessed reduction in tumor growth at 12.5 mg/kg, ip once daily for 21 days relative to control. The format is functional. Conditions: HCT-116, ip, 504 h, time 21 day, read-out: TGI.
Data set [9] in a line: Toxicity in BALB/C nude mouse xenografted with HCT116 cells assessed as effect on body weight at 12.5 to 25 mg/kg, ip once daily for 21 days. The format is organism-based. Conditions: in vivo, 504 h, dose 12.5-25 mg/kg, time 21 day.
Data set [10] deals with HCT-116. Put plainly: Antitumor activity against human HCT116 cells xenografted in BALB/C nude mouse assessed reduction in tumor growth at 25 mg/kg, ip once daily for 21 days relative to control. Conditions: HCT-116, ip, 504 h, time 21 day, read-out: TGI. The format is functional. For orientation: Xenograft models place foreign cells or tissue in a host animal.

The source made the active and inactive calls. No cut-off for these calls is given here.

Sequence of CDK6/cyclin D3 (P30281 whole entry): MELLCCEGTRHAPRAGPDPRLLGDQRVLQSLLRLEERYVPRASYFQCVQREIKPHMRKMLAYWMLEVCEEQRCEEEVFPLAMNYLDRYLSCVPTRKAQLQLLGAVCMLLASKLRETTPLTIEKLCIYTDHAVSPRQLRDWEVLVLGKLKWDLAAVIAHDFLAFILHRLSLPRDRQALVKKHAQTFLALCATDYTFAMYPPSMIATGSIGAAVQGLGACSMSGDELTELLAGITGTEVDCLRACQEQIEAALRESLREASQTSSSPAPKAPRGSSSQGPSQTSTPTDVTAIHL
Sequence of CDK6/cyclin D3 (Q00534 whole entry): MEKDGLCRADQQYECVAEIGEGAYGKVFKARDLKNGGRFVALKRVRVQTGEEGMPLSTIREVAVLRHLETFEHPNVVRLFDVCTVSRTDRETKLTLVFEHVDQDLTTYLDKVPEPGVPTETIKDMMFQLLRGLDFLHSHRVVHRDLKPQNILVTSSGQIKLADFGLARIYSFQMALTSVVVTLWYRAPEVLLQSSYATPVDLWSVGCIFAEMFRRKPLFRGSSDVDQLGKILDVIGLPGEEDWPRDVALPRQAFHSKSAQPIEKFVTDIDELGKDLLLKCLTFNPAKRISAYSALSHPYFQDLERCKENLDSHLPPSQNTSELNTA

Usually IC50 stands for the concentration at which inhibition is half-maximal. Turning to `Nc1ccccc1NC(=O)Cc1ccc(NC(=O)c2n[nH]cc2NC(=O)c2c(Cl)cccc2Cl)cc1`, the figures for the inhibition of growth at 2 µM in data set [1] and in data set [5] were 57.3% and 72.9%, respectively. The results for the IC50 in [2], in [4] and in [7] were 3150 nM, greater than 1000 nM and greater than 1000 nM, respectively. Besides, the inhibition of growth at 8 µM in data set [3] was determined as 78%. The inhibition entry in data set [6] is “Active”.
`Nc1ccccc1NC(=O)c1ccc(CNC(=O)c2n[nH]cc2NC(=O)c2c(Cl)cccc2Cl)cc1`: the inhibition in vivo at 12.5 mg/kg in data set [8] was 37%. Further, the values for the inhibition of growth at 2 µM in data set [1] and in data set [5] were 32.8% and 73.8%, respectively. The Activity entry in [9] is on record as “Non-Toxic”. The inhibition in vivo at 25 mg/kg in data set [10] came to 51%. Further, the IC50 in data set [2] is 1830 nM; in data set [4], greater than 1000 nM; in data set [7], greater than 1000 nM. Besides, the inhibition of growth at 8 µM in data set [3] came out at 73.8%. Further, in [6], the inhibition result was “Active”.
